What follows are compounds tested against T1, MMP-8 (neutrophil collagenase) (Homo sapiens, UniProt P22894) (assay: MMP activity measurement test, MMP-8 fluorimetric drug discovery kit). Conditions: reaction with enzyme 37° C. 60 minutes, substrate 20 minutes; FIG. 4.
T1 construct: purchased Enzo Life Sciences, Inc. BML-AK415-0001
Assay type: biochemical
Experimental: (§1) Evaluation material solutions were prepared by individually adding each evaluation material at the respective concentrations shown in FIGS. 4 and 5 to a solvent in which 5% DMSO was added to the buffer included in each kit below. The evaluation materials used are EPC-K (L-ascorbic acid dl-α-tocopherol phosphoric acid diester potassium salt), VC (ascorbic acid), VEA (tocopherol acetate), and VEN (tocopherol nicotinate).
(§2) MMP-8 (neutrophil collagenase) activity was evaluated using an MMP-8 fluorimetric drug discovery kit (Enzo Life Sciences, Inc., BML-AK415-0001), and MMP-1 (fibroblast collagenase) activity was evaluated using an MMP-1 fluorimetric drug discovery kit (Enzo Life Sciences, Inc., BML-AK405-0001), in the following manner. […]
(§3) The fluorescent substrate included in each kit was diluted 10-fold using the buffer, and added in an amount of 10 μl to each solution after the reaction for 60 minutes. After the addition, a reaction was allowed to proceed at 37° C. for 20 minutes for MMP-8 or at 37° C. for 60 minutes for MMP-1, and the fluorescence intensity (excitation light: 328 nm; emission light: 420 nm) was measured. […] The concentration of each evaluation material in FIGS. 4 and 5 is the concentration at the time of preparing the evaluation material, and the final concentration (concentration at the time of measuring fluorescence intensity) is 1/5 of this concentration value.

T1 sequence (P22894 100-262 limits assumed): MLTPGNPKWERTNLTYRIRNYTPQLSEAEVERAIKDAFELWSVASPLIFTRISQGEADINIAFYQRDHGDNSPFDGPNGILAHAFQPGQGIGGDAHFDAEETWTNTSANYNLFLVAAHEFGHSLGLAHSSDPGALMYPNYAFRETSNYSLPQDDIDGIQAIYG

Compound	inhibition of MMP-8 activity
Cc1c(C)c2c(c(C)c1OP(=O)([O-])OC1=C(O)C(C(O)CO)OC1=O)CCC(C)(CCCC(C)CCCC(C)CCCC(C)C)O2.[K+] (racemic) [EPC-K, L-ascorbic acid dl-α-tocopherol phosphoric acid diester potassium salt]	inhibited MMP activity (MMP-8 and MMP-1) in a concentration-dependent manner

These compounds were tested on oral cavity-derived epithelial cell line (Ca9-22 cells) (assay: Cytotoxicity evaluation test (WST-1)). Conditions: surfactant final concentration 1%, 10 minutes at room temperature, FIGS. 6 and 7.
Assay type: cell-based
Experimental: An oral cavity-derived epithelial cell line (Ca9-22 cells) was cultured in a 96-well plate to confluency.
Evaluation solutions were prepared using PBS containing 0.5% DMSO as a solvent so that the final concentration of each surfactant was 1%. The surfactants used were polyoxyethylene (9) lauryl ether, polyoxyethylene (20) cetyl ether, polyoxyethylene (20) stearyl ether, polyoxyethylene (10) octylphenyl ether, polyoxyethylene glycol monolaurate, sorbeth-60 tetraoleate, diethyl sebacate, and polyoxyethylene (10) hydrogenated castor oil.
100 μl of each prepared evaluation solution was individually added to the cultured Ca9-22 cells and allowed to stand for 10 minutes at room temperature. After 10 minutes, washing was performed three times with 200 μl of PBS, a WST-1 reagent (Takara Bio Inc.) was added, and a reaction was allowed to proceed for 30 minutes. After the reaction, the absorbance at 450 nm and 600 nm was measured, and the absorbance at 600 nm was subtracted from the absorbance at 450 nm. The cell viability was calculated from the value calculated by the subtraction, based on the value obtained when only the solvent was added for the treatment taken as 100%. FIGS. 6 and 7 show the results.

Compound	cytotoxicity in oral cavity-derived cells (cell viability)
polyoxyethylene (20) stearyl ether	cytotoxicity was caused
polyoxyethylene (9) lauryl ether	cytotoxicity was caused
polyoxyethylene (10) octylphenyl ether	cytotoxicity was caused
polyoxyethylene glycol monolaurate	cytotoxicity was caused
polyoxyethylene (10) hydrogenated castor oil	cytotoxicity was not caused
sorbeth-60 tetraoleate	cytotoxicity was not caused
CCOC(=O)CCCCCCCCC(=O)OCC [diethyl sebacate]	cytotoxicity was not caused
polyoxyethylene (20) cetyl ether	cytotoxicity was caused

Each compound was assayed against T2, MMP-1 (fibroblast collagenase) (Homo sapiens, UniProt P03956) (assay: MMP activity measurement test, MMP-1 fluorimetric drug discovery kit). Conditions: reaction with enzyme 37° C. 60 minutes, substrate 60 minutes; FIG. 5.
T2 construct: purchased Enzo Life Sciences, Inc. BML-AK405-0001
T2 sequence (P03956 100-269 limits assumed): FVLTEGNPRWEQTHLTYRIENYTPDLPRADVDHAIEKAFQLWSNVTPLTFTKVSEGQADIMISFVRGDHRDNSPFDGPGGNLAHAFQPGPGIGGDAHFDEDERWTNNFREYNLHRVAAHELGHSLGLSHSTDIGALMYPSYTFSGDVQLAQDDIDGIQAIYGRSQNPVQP
Assay type: biochemical
Experimental: as §1, §2, §3

Compound	inhibition of MMP-1 activity
Cc1c(C)c2c(c(C)c1OP(=O)([O-])OC1=C(O)C(C(O)CO)OC1=O)CCC(C)(CCCC(C)CCCC(C)CCCC(C)C)O2.[K+] (racemic) [EPC-K, L-ascorbic acid dl-α-tocopherol phosphoric acid diester potassium salt]	inhibited MMP activity (MMP-8 and MMP-1) in a concentration-dependent manner

— patent publication US20250205194A1, “COMPOSITION CONTAINING L-ASCORBIC ACID DL-a-TOCOPHEROL PHOSPHORIC ACID DIESTER ALKALI METAL SALT” (SUNSTAR INC., priority 2022, published 2025)
